According to ChEMBL document CHEMBL4330144, “A mitochondria-targeted organic arsenical accelerates mitochondrial metabolic disorder and function injury” (Bioorg Med Chem, 2019):
The source made the active and inactive calls. The calls are words filed in the database; no cut-off is given here.

What was measured:
[1] = molecular target: T1, Dihydrolipoyllysine-residue acetyltransferase component of pyruvate dehydrogenase complex, mitochondrial (Homo sapiens) (UniProt P10515); experiment: Inhibition of PDHC-E2 activity in human NB4 cells up to 2.4 uM after 3 hrs; type: cell-based
T1 sequence (whole entry): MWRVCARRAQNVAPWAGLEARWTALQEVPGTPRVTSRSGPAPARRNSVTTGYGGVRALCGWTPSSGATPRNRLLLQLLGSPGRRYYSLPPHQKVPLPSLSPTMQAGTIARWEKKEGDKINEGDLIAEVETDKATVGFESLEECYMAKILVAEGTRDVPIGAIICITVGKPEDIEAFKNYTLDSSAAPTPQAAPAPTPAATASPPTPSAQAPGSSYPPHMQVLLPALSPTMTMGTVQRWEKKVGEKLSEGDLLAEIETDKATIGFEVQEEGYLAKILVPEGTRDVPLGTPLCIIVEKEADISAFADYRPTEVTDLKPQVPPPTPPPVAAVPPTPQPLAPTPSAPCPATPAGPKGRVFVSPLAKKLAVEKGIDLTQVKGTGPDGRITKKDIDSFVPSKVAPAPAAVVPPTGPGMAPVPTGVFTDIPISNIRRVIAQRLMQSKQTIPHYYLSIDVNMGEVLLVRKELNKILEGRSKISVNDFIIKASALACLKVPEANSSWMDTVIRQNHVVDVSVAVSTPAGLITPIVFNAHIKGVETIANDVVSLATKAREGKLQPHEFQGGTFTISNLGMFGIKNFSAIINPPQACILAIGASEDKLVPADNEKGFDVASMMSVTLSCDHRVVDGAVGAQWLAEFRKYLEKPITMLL

NB-4 [2] = experiment: Induction of cytochrome-c release in human NB4 cells after 24 hrs by ELISA; type: functional, cell-based
Rattus norvegicus [3] = species on record: Rattus norvegicus; experiment: Induction of mitochondrial membrane potential loss in isolated Wistar rat mitochondria assessed as maximum power output time at 50 uM using pyruvate as substrate up to 3 hrs by microcalorimetry; type: functional
MCF7 = experiment: Cytotoxicity against human MCF7 cells after 48 hrs by MTT assay; type: functional, cell-based; conditions: MCF7, 48 h
NB-4 [4] = experiment: Induction of apoptosis in human NB4 cells assessed as late apoptotic cells after 24 hrs in presence of Nec-1 by Annexin V-FITC/propidium iodide staining based flow cytometry (reference value: 2.9%); type: functional
NB-4 [5] = experiment: Induction of apoptosis in human NB4 cells assessed as live cells after 24 hrs in presence of Z-VAD-fmk by Annexin V-FITC/propidium iodide staining based flow cytometry (reference value: 92%); type: functional
HeLa = experiment: Cytotoxicity against human HeLa cells after 24 hrs by MTT assay; type: functional, cell-based
NB-4 [6] = experiment: Induction of mitochondrial membrane potential loss in human NB4 cells at 0.3 to 2.4 uM after 24 hrs by JC-1 staining based confocal microscopic method; type: functional, cell-based
Rattus norvegicus [7] = species on record: Rattus norvegicus; experiment: Induction of mitochondrial membrane potential loss in isolated Wistar rat mitochondria assessed as activity recovery phase rate constant at 100 uM using pyruvate as substrate up to 3 hrs by microcalorimetry; type: functional
Rattus norvegicus [8] = species on record: Rattus norvegicus; experiment: Induction of mitochondrial membrane potential loss in isolated Wistar rat mitochondria assessed as stationary increase phase rate constant at 25 uM using pyruvate as substrate up to 3 hrs by microcalorimetry (reference value: 1 to 1.18 10^-3/min); type: functional
Rattus norvegicus [9] = species on record: Rattus norvegicus; experiment: Induction of inner mitochondrial membrane permeabilization in isolated Wistar rat mitochondria assessed as K+ permeabilization at 5 to 75 uM measured for 10 to 30 mins; type: functional
NB-4 [10] = experiment: Induction of apoptosis in human NB4 cells assessed as nuclear condensation at 0.6 to 1.2 uM after 24 hrs by Hoechst 33342/propidium iodide staining based confocal microscopic method; type: functional, cell-based
Rattus norvegicus [11] = species on record: Rattus norvegicus; experiment: Induction of mitochondrial membrane potential loss in isolated Wistar rat mitochondria assessed as decline phase rate constant at 50 uM using pyruvate as substrate up to 3 hrs by microcalorimetry; type: functional
NB-4 [12] = experiment: Reduction in cell viability in human NB4 cells up to 1.6 uM up to 24 hrs by MTT assay; type: functional, cell-based
NB-4 [13] = experiment: Induction of decrease in intracellular total thiols level in human NB4 cells up to 1.2 uM up to 24 hrs; type: functional, cell-based
Rattus norvegicus [14] = species on record: Rattus norvegicus; experiment: Induction of mitochondrial swelling in isolated Wistar rat mitochondria at 30 uM in presence of EGTA; type: functional
Rattus norvegicus [15] = species on record: Rattus norvegicus; experiment: Induction of mitochondrial membrane potential loss in isolated Wistar rat mitochondria assessed as decline phase rate constant at 25 uM using pyruvate as substrate up to 3 hrs by microcalorimetry (reference value: -24.13 to -20.47 10^-3/min); type: functional
Rattus norvegicus [16] = species on record: Rattus norvegicus; experiment: Induction of mitochondrial membrane potential loss in isolated Wistar rat mitochondria assessed as maximum power output time at 25 uM using pyruvate as substrate up to 3 hrs by microcalorimetry (reference value: 45.07 to 49.89 hrs); type: functional
Rattus norvegicus [17] = species on record: Rattus norvegicus; experiment: Induction of mitochondrial membrane potential loss in isolated Wistar rat mitochondria assessed as stationary increase phase rate constant at 50 uM using pyruvate as substrate up to 3 hrs by microcalorimetry; type: functional
Rattus norvegicus [18] = species on record: Rattus norvegicus; experiment: Induction of inner mitochondrial membrane permeabilization in isolated Wistar rat mitochondria assessed as H+ permeabilization at 5 to 75 uM measured for 10 to 30 mins; type: functional
NB-4 [19] = experiment: Induction of apoptosis in human NB4 cells assessed as DNA fragmentation at 0.6 to 1.2 uM after 24 hrs by Hoechst 33342/propidium iodide staining based confocal microscopic method; type: functional, cell-based
Rattus norvegicus [20] = species on record: Rattus norvegicus; experiment: Induction of mitochondrial membrane potential loss in isolated Wistar rat mitochondria assessed as maximum power output at 25 uM using pyruvate as substrate up to 3 hrs by microcalorimetry (reference value: 141.64 to 153.92 W); type: functional
NB-4 [21] = experiment: Induction of ROS generation in human NB4 cells up to 1.2 uM up to 24 hrs by DCFH-DA staining based flow cytometry; type: functional, cell-based
SGC-7901 = experiment: Cytotoxicity against human SGC7901 cells after 48 hrs by MTT assay; type: functional, cell-based; conditions: SGC-7901, 48 h
NB-4 [22] = experiment: Induction of apoptosis in human NB4 cells assessed as necrotic cells after 24 hrs by Annexin V-FITC/propidium iodide staining based flow cytometry (reference value: 0.1%); type: functional
HEK293 = experiment: Cytotoxicity against HEK293 cells after 24 hrs by MTT assay; type: cell-based; conditions: Homo sapiens, HEK293, 24 h
Rattus norvegicus [23] = species on record: Rattus norvegicus; experiment: Induction of mitochondrial membrane potential loss in isolated Wistar rat mitochondria assessed as maximum power output time at 100 uM using pyruvate as substrate up to 3 hrs by microcalorimetry; type: functional
NB-4 [24] = experiment: Induction of ROS generation in human NB4 cells up to 1.2 uM up to 24 hrs by DHE staining based flow cytometry; type: functional, cell-based
NB-4 [25] = experiment: Cytotoxicity against human NB4 cells assessed as reduction in cell viability at 1.2 uM after 24 hrs in presence of PDHC-E2 co-enzyme LA by trypan blue assay; type: functional, cell-based
NB-4 [26] = experiment: Cytotoxicity against human NB4 cells assessed as reduction in cell viability at 1 to 1.2 uM after 24 hrs in presence of DMSA by trypan blue assay; type: functional, cell-based
NB-4 [27] = experiment: Induction of mitochondrial membrane potential loss in human NB4 cells at 0.6 uM after 1 hr by JC1 staining based flow cytometry (reference value: 27.7%); type: functional

O=C(CC[P+](c1ccccc1)(c1ccccc1)c1ccccc1)Nc1ccc([As]2SCCCS2)cc1.[Cl-]
inhibition [1]: Active
Activity (NB-4 [2]): Dose-dependent effect
TIME (Rattus norvegicus [3]): 47.6 h
IC50 (MCF7): 1.46 µM
Activity (NB-4 [4]): 16.2%
Activity (NB-4 [5]): 81.9%
IC50 (HeLa): 9.05 µM
Activity (NB-4 [6]): Active
K (Rattus norvegicus [7]): 3.88 ×10⁻³ /min
K (Rattus norvegicus [8]): 0.72 ×10⁻³ /min
Activity (Rattus norvegicus [9]): Active
Activity (NB-4 [10]): Active
K (Rattus norvegicus [11]): -9.35 ×10⁻³ /min
Activity (NB-4 [12]): Active
Activity (NB-4 [13]): Active
Activity (Rattus norvegicus [14]): inactive
K (Rattus norvegicus [15]): -14.1 ×10⁻³ /min
TIME (Rattus norvegicus [16]): 45.4 h
K (Rattus norvegicus [17]): 0.46 ×10⁻³ /min
Activity (Rattus norvegicus [18]): Active
Activity (NB-4 [19]): Active
Activity (Rattus norvegicus [20]): 152 W
Activity (NB-4 [21]): Active
IC50 (SGC-7901): 0.99 µM
Activity (NB-4 [22]): 1.4%
IC50 (HEK293): 4.63 µM
TIME (Rattus norvegicus [23]): 51.8 h
Activity (NB-4 [24]): Active
Activity (NB-4 [25]): inactive
Activity (NB-4 [26]): inactive
Activity (NB-4 [27]): 40.9%
